In test [1] the target is T1, cannabinoid receptors (CBR) (Rattus norvegicus, UniProt P20272).
T1 construct: a: performed in rat whole brain membrane homogenates; from tissue; host or cells: Wistar rat whole brain membrane homogenate
Description: biochemical. It counts as binding. The method, then:
Tris-HCl, EGTA, NaCl, MgCl2 x 6H2O, GDP, the GTP analogue GTPγS, were purchased from Sigma-Aldrich (Budapest, Hungary). Fatty acid free bovine serum albumin (BSA) was purchased from Serva (Heidelberg, Germany). Naloxone was kindly provided by the company Endo Laboratories DuPont de Nemours (Wilmington, DE, USA). HS665 was provided by Schmidhammer’s group (University of Innsbruck, Austria). […]
purchased from Tocris Bioscience (Bristol, UK).
DMSO. All compounds were stored in 1 mM stock solution at -20 °C. The radiolabelled GTP analogue, [35S]GTPγS (specific activity: 1000 Ci/mmol) were purchased from Hartmann Analytic (Braunschweig, Germany). [3H]DAMGO (specific activity: 38.8 Ci/mmol),12 [3H]IleDelt II (specific activity: 19,6 Ci/mmol), [3H]WIN55,212-2 (specific activity: 13,1 Ci/mmol) and [3H]HS665 (specific activity: 36.62 Ci/mmol),3 were radiolabeled by the Laboratory of Chemical Biology group in BRC (Szeged, Hungary).
For membrane homogenate preparations male and female Wistar rats (250-300 g body weight) and male guinea pigs (~700 g body weight, LAL/HA/BR strain) were used. Rats were housed in the local animal house of BRC (Szeged, Hungary), while guinea pigs were housed in LAB-ÁLL Bt.
(Budapest, Hungary). All the animals were kept in a temperature controlled room (21-24 °C) under a 12:12 light and dark cycle and were provided with water and food ad libitum. All housing and experiments were conducted in accordance with the European Communities Council Directives (2010/63/EU) and the Hungarian Act for the Protection of Animals in Research (XXVIII.tv. 32.§).
The total number of animals as well as their suffering was minimized.
Rat and guinea pig brain membrane homogenate preparation for binding assays Rats and guinea pigs were decapitated and their brains were quickly removed. The brains were prepared for membrane preparation as previously described,4 and partly used for binding experiments and partly were further prepared for the [35S]GTPγS binding experiments. Briefly the brains were homogenized, centrifuged in ice-cold 50 mM Tris-HCl (pH 7.4) buffer and incubated at 37 °C for 30 min in a shaking water-bath. After incubation the centrifugation was repeated as described above and the final pellet was suspended in 50 mM Tris-HCl pH 7.4 buffer containing 0.32 M sucrose, and stored at -80 °C. For the [35S]GTPγS binding experiments the final pellet of rat […]
brain membrane homogenate was suspended in ice-cold TEM (Tris-HCl, EGTA, MgCl2) and stored at -80 °C for further use.
Radioligand competition binding experiments
Aliquots of frozen rat brain membrane homogenates were centrifuged (18 000 rpm, 20 min, 4 °C) to remove sucrose and the pellets were suspended in 50 mM Tris-HCl buffer (pH 7.4). Membranes containing 0.4-0.8 mg/mL of protein were incubated in a final volume of 1 mL in the presence of unlabeled 5, 10 and 9 in increasing concentrations (10-11-10-5 M) in the presence of the appropriate radioligand in ~1 nM concentrations at certain temperature and amount of time depending on the radioligand ([3H]DAMGO and [3H]IleDelt II: 35 °C for 45 min; [3H]HS665: 30 °C, 45 min; [3H]WIN55,212-2: 30 °C for 60 min). Experiments performed with [3H]HS665 where incubated […]
more kappa receptors than the rat brain), while the rest of the radioligands were incubated together with rat whole brain membrane homogenates. Additionally, in experiments performed with […]
increasing concentrations (10-11-10-5 M) together with 50 mM Tris/HCl, 2.5 mM EGTA, 5 mM MgCl2 and 0.5 mg/mL fatty acid free BSA (pH 7.4). The level of non-specific binding was […]
binding was determined in the absence of unlabeled compounds. The reaction was terminated by rapid filtration under vacuum (Brandel M24R Cell Harvester), and washed three times with 5 mL ice-cold 50 mM Tris-HCl or 50 mM Tris/HCl, 2.5 mM EGTA, 5 mM MgCl2, 0.5 % BSA (pH 7.4) in case of [3H]WIN55,212-2. The filtration was accomplished through Whatman GF/C ([3H]DAMGO, [3H]IleDelt II and [3H]HS665) or GF/B ([3H]WIN55,212-2) glass fibers. In case of […]

For test [2], the target named is G-protein. In words: Functional [35S]GTPγS binding assay on rat brain membrane homogenates. It counts as biochemical. The note with it: rat brain membrane homogenates; for Emax ± S.E.M. (maximal G-protein efficacy): basal activity = 100%; for LogEC50 ± S.E.M. (ligand potency): logarithm of EC50, negative sign printed. The method, then:
The experiments were performed by [35S]GTPγS binding assays to control the GDP to GTP exchange of the α-subunit of Gi-protein. […] We examined the opioid receptor binding affinity of 5 in competition binding experiments, using opioid receptor selective radioligands. […]
Functional [35S]GTPγS binding experiments
The functional [35S]GTPγS binding experiments were performed as previously described,5,6 with modifications. Briefly the rat brain membrane homogenates containing ~10 µg/mL protein were incubated at 30 °C for 60 min in Tris-EGTA buffer (pH 7.4) composed of 50 mM Tris-HCl, 1 mM EGTA, 3 mM MgCl2, 100 mM NaCl, containing 20 MBq/0.05 cm3 [35S]GTPγS (0.05 nM) and […]
compound 9 together with excess GDP (30 µM) in a final volume of 1 mL. Total binding was measured in the absence of test compounds, non-specific binding was determined in the presence of 10 µM unlabelled GTPγS. The bound and unbound [35S]GTPγS was separated as described in the […]
competition binding assays section through Whatmann GF/B glass fibers. The radioactivity of the filters was also detected as described above. [35S]GTPγS binding experiments were performed in triplicates and repeated at least three times.
The specific binding of all radiolabeled compounds was calculated by the subtraction of non-specific binding from total binding and was given in percentage. The data was normalized to total specific binding, which was settled 100%, which in case of [35S]GTPγS also represents the basal activity of the G-protein. Experimental data were presented as means ± S.E.M in the function of the applied ligand concentration range in logarithm form. Points were fitted with the professional curve fitting program, GraphPad Prism 5.0 (GraphPad Prism Software Inc., San Diego, CA), using non-linear regression. In the radioligand competition binding assays the ‘One-site competition’, while in [35S]GTPγS binding assays the ‘Sigmoid dose-response’ equation was applied to determine IC50 (unlabeled ligand affinity) and the maximum G-protein efficacy (Emax) and ligand potency (EC50), respectively. For IC50 and EC50 values standard error is only given in their logarithm form by the curve fitting program due to the data representation. In competition binding experiments the Ki value was calculated according to Cheng-Prusoff equation.7 […]
binding assays. In figure B, 5 is indicated again for better comparison. Figures represents the specific binding of [35S]GTPγS in percentage in the presence of increasing concentrations (10-10-10-5 M) of the indicated ligands in rat brain membrane homogenates. “Basal” on the x-axis indicates the basal activity of the monitored G-protein, which is measured in the absence of the compounds and also represents the total specific binding of [35S]GTPγS. The level of basal activity was defined as 100% and is presented with a dotted line. Points represent means ± S.E.M. for at least three experiments performed in triplicate.

The mark [3] stands for this setting: rat whole brain membrane homogenates, Cheng-Prusoff, read-out: Ki, [3H]WIN55,212 (CBR).
[4] abbreviates: rat whole brain membrane homogenates, logarithm of IC50, negative sign printed, read-out: logIC50 ± S.E.M., [3H]WIN55,212 (CBR) (converted).

Where two headings read alike, the source gives them in different places.

T1 sequence (P20272 whole entry): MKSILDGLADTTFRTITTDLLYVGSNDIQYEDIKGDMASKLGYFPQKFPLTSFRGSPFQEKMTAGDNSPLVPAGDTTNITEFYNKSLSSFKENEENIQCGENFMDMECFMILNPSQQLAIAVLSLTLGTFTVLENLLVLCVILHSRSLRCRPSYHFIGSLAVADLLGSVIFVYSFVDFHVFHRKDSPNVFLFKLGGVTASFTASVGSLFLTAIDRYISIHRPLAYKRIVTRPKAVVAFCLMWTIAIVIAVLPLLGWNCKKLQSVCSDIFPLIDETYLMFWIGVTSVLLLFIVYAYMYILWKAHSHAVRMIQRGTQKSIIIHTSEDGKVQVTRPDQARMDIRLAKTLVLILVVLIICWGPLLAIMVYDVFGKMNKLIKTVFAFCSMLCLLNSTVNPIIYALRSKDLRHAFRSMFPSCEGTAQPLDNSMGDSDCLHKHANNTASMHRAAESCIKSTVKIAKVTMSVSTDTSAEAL

In test [1], `Cc1c(C(=O)NN2CCCCC2)nn(-c2ccc(Cl)cc2Cl)c1-n1cccc1` [Compound 1] gave an IC50 of 0.195 µM and a Ki of 0.126 µM. In test [2], it took 1.62 µM to reach a half-maximal effect (EC50), the “Emax ± S.E.M. (maximal G-protein efficacy)” value is given as 26 ± 5.27% and the “LogEC50 ± S.E.M. (ligand potency)” value is reported as −5.78 ± 0.11.

As for `Cc1c(C(=O)NN2CCCCC2)nn(-c2ccc(Cl)cc2Cl)c1-c1ccc(Cl)cc1` [Rimonabant, reference compound], in test [2], the EC50 was 2.2 µM, the “Emax ± S.E.M. (maximal G-protein efficacy)” value is given as 17.5 ± 5.72% and the “LogEC50 ± S.E.M. (ligand potency)” value is listed as −5.65 ± 0.12.

In test [1], `Cc1c(C(=O)NC2CCCCC2)nn(-c2ccc(Cl)cc2Cl)c1-n1cccc1` [Compound 4] had an IC50 of 0.575 µM and a Ki of 0.37 µM. For the same molecule, in test [2], it took 1.87 µM to reach a half-maximal effect (EC50), the “Emax ± S.E.M. (maximal G-protein efficacy)” value is recorded as 55.95 ± 8.44% and the “LogEC50 ± S.E.M. (ligand potency)” value is recorded as −5.72 ± 0.3.

`Cc1c(C(=O)NC2CCN(C(=O)OC(C)(C)C)CC2)nn(-c2ccc(Cl)cc2Cl)c1-n1cccc1` [Compound 3]: the Ki in test [1] (setting [3]) was found to be 0.193 µM. For the same molecule, the IC50 in test [1] (setting [4]) was 0.295 µM. In addition, in test [2], the EC50 is 2.69 µM, the “Emax ± S.E.M. (maximal G-protein efficacy)” value came out at 12.78 ± 8.48% and the “LogEC50 ± S.E.M. (ligand potency)” value is reported as −5.57 ± 0.15.

Consider `Cc1c(C(=O)N2CCN(C(=O)OCc3ccccc3)CC2)nn(-c2ccc(Cl)cc2Cl)c1-n1cccc1` [Compound 2], for which the inhibition constant Ki in test [1] (setting [3]) came to 0.71 µM. For the same molecule, the IC50 in test [1] (setting [4]) was 1.1 µM. For the same molecule, in test [2], the EC50 was 1.54 µM, the “Emax ± S.E.M. (maximal G-protein efficacy)” value is recorded as 22.95 ± 4.3% and the “LogEC50 ± S.E.M. (ligand potency)” value is given as −5.81 ± 0.09.

Source of the values: publication PMC6009935 (Journal of Enzyme Inhibition and Medicinal Chemistry, 2017).
